Experimental data as given in patent US4977184A, “Bicyclic peroxides compositions for and treatment of malaria therewith” (Hoffmann-La Roche Inc., priority 1987, dated 1990).

Key:
[1] = tested on: Plasmodium berghey; assay: Blood schizontocidal activity in infected mice (ED50, s.c., four-fold administration); format: in vivo, Plasmodium berghey; male albino mice; settings: mice infected with Plasmodium berghey, first 3 h after infection and on three subsequent days, smears D+4
Protocol: They have a pronounced blood schizontocidal activity. The activity of the substances in accordance with the invention can be determined, for example, in the animal experiment described hereinafter: Male albino mice weighing 18-20 g are used as the experimental animals. They are kept in climatized rooms at 22°-23° C. in groups of 5 animals per cage. They receive ad libitum a diet feed with low PABA content and drinking water. On the first day of the experiment (DO) the experimental animals are infected with Plasmodium berghey by intravenously injecting into each of the experimental animals 0.2 ml of heparinized blood of infected donor mice. The donor blood is diluted so that it contains 10^7 parasitized erythrocytes per 0.2 ml. In untreated control animals the parasitemia normally reaches 70-80% on the fourth day after the infection (D+4) and the experimental animals die between days +5 to +8. The substances to be tested are dissolved or suspended in distilled water or in a mixture of Tween 80, alcohol (96%) and water. Generally, in each case 0.5 ml of this solution or suspension is administered subcutaneously to groups of 5 experimental animals. The treatment is effected for the first time 3 hours after the infection as well as on the three subsequent days. Suitable dilutions of the test compounds are used for the titration of the activity. Per experiment 10 animals are treated in the same manner with the solution or suspension medium. 24 hours after the last treatment (D+4) blood smears with blood from tail veins are prepared from all animals and stained with giemsa. The average erythrocyte infection rate (parasitemia in %) in the control group as well as in the groups which have been treated with the compounds to be tested is determined by counting under the microscope. The difference in the average value of the infection rate between control group (100%) and the treated groups is calculated and expressed as the percentage reduction. The ED50 is determined mathematically from the results obtained. The ED50 in mg/kg is that dosage which, after four-fold administration, reduces to 50% the average erythrocyte infection rate in comparison to the control group. The results which have been obtained with representative members of the class of substance defined by formula I in the previously described experiment are compiled in the following Table. Moreover, the Table contains data concerning the toxicity of some of these compounds.

[2] = Toxicity, single oral administration to mice; settings: mouse, in vivo, p.o., no toxic symptoms at the dosage indicated, read-out: Toxicity, Dosage (no toxic symptoms observed at this amount)
From the text: The results which have been obtained with representative members of the class of substance defined by formula I in the previously described experiment are compiled in the following Table. Moreover, the Table contains data concerning the toxicity of some of these compounds.

**Q.** For `CCCCCCCC[C@@]1(C)OO[C@@H]2C[C@H]1CC(=O)[C@@H]2C` [(CH2)7CH3 (1R, 4R, 5S, 8R), (1R,4R,5S,8R)-4,8-dimethyl-4-octyl-2,3-dioxabicyclo[3.3.1]nonan-7-one], which “Activity ED50 (dosage which, after four-fold administration, reduces to 50% the average erythrocyte infection rate versus control)” value [1] is on record?
**A.** 6.4 mg/kg

**Q.** For `CCCCCCCC[C@]1(C)OO[C@@H]2C[C@H]1CC(=O)[C@@H]2C` [(CH2)7CH3 (1R, 4S, 5S, 8R), (1R,4S,5S,8R)-4,8-dimethyl-4-octyl-2,3-dioxabicyclo[3.3.1]nonan-7-one], which “Activity ED50 (dosage which, after four-fold administration, reduces to 50% the average erythrocyte infection rate versus control)” value [1] is on record?
**A.** 5.2 mg/kg

**Q.** With `CCCCCCCCC[C@@]1(C)OO[C@@H]2C[C@H]1CC(=O)[C@@H]2C` [(CH2)8CH3 (1R, 4R, 5S, 8R), (1R,4R,5S,8R)-4.8-dimethyl-4-nonyl-2,3-dioxabicyclo[3.3.1]nonan-7-one] as the compound, how does the “Activity ED50 (dosage which, after four-fold administration, reduces to 50% the average erythrocyte infection rate versus control)” value [1] read?
**A.** 3.6 mg/kg

**Q.** For `CCCCCCCCC[C@]1(C)OO[C@@H]2C[C@H]1CC(=O)[C@@H]2C` [(CH2)8CH3 (1R, 4S, 5S, 8R), (1R,4S,5S,8R)-4,8-dimethyl-4-nonyl-2,3-dioxabicyclo[3.3.1]nonan-7-one], which “Activity ED50 (dosage which, after four-fold administration, reduces to 50% the average erythrocyte infection rate versus control)” value [1] is on record?
**A.** 6.0 mg/kg

**Q.** Which “Activity ED50 (dosage which, after four-fold administration, reduces to 50% the average erythrocyte infection rate versus control)” value [1] does the source give for `CCCCCCCCCC[C@@]1(C)OO[C@@H]2C[C@H]1CC(=O)[C@@H]2C` [(CH2)9CH3 (1R, 4R, 5S, 8R), (1R,4R,5S,8R)-4-decyl-4,8-dimethyl-2,3-dioxabicyclo[3.3.1]nonan-7-one] here?
**A.** 5.2 mg/kg

**Q.** With `CCCCCCCCCC[C@]1(C)OO[C@@H]2C[C@H]1CC(=O)[C@@H]2C` [(CH2)9CH3 (1R, 4S, 5S, 8R), (1R,4S,5S,8R)-4-decyl-4,8-dimethyl-2,3-dioxabicyclo[3.3.1]-nonan-7-one] as the compound, how does the “Activity ED50 (dosage which, after four-fold administration, reduces to 50% the average erythrocyte infection rate versus control)” value [1] read?
**A.** 3.4 mg/kg

**Q.** With `CCCCCCCCCCC[C@@]1(C)OO[C@@H]2C[C@H]1CC(=O)[C@@H]2C` [(CH2)10CH3 (1R, 4R, 5S, 8R), (1R,4R,5S,8R)-4,8-dimethyl-4-undecyl-2,3-dioxabicyclo[3.3.1]nonan-7-one] as the compound, how does the NOAEL [2] read?
**A.** 3000 mg/kg

**Q.** What about the “Activity ED50 (dosage which, after four-fold administration, reduces to 50% the average erythrocyte infection rate versus control)” value [1] of the same compound?
**A.** 5.2 mg/kg

**Q.** With `CCCCCCCCCCC[C@]1(C)OO[C@@H]2C[C@H]1CC(=O)[C@@H]2C` [(CH2)10CH3 (1R, 4S, 5S, 8R), (1R,4S,5S,8R)-4,8-dimethyl-4-undecyl-2,3-dioxabicyclo[3.3.1]nonan-7-one] as the compound, how does the NOAEL [2] read?
**A.** 3000 mg/kg

**Q.** What about the “Activity ED50 (dosage which, after four-fold administration, reduces to 50% the average erythrocyte infection rate versus control)” value [1] of the same compound?
**A.** 3.4 mg/kg

**Q.** For `CCCCCCCCCCC[C@@]1(C)OO[C@H]2C[C@@H]1CC(=O)[C@H]2C` [(CH2)10CH3 (1S, 4R, 5R, 8S), (1S,4R,5R,8S)-4,8-dimethyl-4-undecyl-2,3-dioxabicyclo[3.3.1]nonan-7-one], which “Activity ED50 (dosage which, after four-fold administration, reduces to 50% the average erythrocyte infection rate versus control)” value [1] is on record?
**A.** 4.6 mg/kg

**Q.** With `CCCCCCCCCCC[C@]1(C)OO[C@H]2C[C@@H]1CC(=O)[C@H]2C` [(CH2)10CH3 (1S, 4S, 5R, 8S), (1S,4S,5R,8S)-4,8-dimethyl-4-undecyl-2,3-dioxabicyclo[3.3.1]nonan-7-one] as the compound, how does the “Activity ED50 (dosage which, after four-fold administration, reduces to 50% the average erythrocyte infection rate versus control)” value [1] read?
**A.** 5.9 mg/kg

**Q.** For `CCCCCCCC/C=C/[C@]1(C)OO[C@@H]2C[C@H]1CC(=O)[C@@H]2C` [CHCH(CH2)7CH3 (1R, 4R, 5S, 8R), (1R,4R,5S,8R)-4-[(E)-1-decenyl]-4.8-dimethyl-2,3-dioxabicyclo[3.3.1]nonan-7-one], which “Activity ED50 (dosage which, after four-fold administration, reduces to 50% the average erythrocyte infection rate versus control)” value [1] is on record?
**A.** 6.2 mg/kg

**Q.** With `CCCCCCCC/C=C/[C@@]1(C)OO[C@@H]2C[C@H]1CC(=O)[C@@H]2C` [CHCH(CH2)7CH3 (1R, 4S, 5S, 8R), (1R,4S,5S,8R)-4-[(E)-1-decenyl]-4,8-dimethyl-2,3-dioxabicyclo[3.3.1]nonan-7-one] as the compound, how does the “Activity ED50 (dosage which, after four-fold administration, reduces to 50% the average erythrocyte infection rate versus control)” value [1] read?
**A.** 4.5 mg/kg

**Q.** For `C[C@H]1C(=O)C[C@@H]2C[C@H]1OO[C@]2(C)/C=C\c1cc(C(F)(F)F)nc2cc(C(F)(F)F)ccc12` [drawing 9 (1R, 4S, 5S, 8R)], which “Activity ED50 (dosage which, after four-fold administration, reduces to 50% the average erythrocyte infection rate versus control)” value [1] is on record?
**A.** 6.2 mg/kg

**Q.** For `C[C@@H]1C(=O)C[C@H]2C[C@@H]1OO[C@@]2(C)/C=C\c1cc(C(F)(F)F)nc2cc(C(F)(F)F)ccc12` [drawing 9 (1S, 4R, 5R, 8S)], which “Activity ED50 (dosage which, after four-fold administration, reduces to 50% the average erythrocyte infection rate versus control)” value [1] is on record?
**A.** 5.4 mg/kg

**Q.** Which NOAEL [2] does the source give for `C[C@H]1C(=O)C[C@@H]2C[C@H]1OO[C@]2(C)/C=C\c1cc(C(F)(F)F)nc2cc(C(F)(F)F)ccc12` [drawing 9] here?
**A.** 6000 mg/kg

**Q.** For `C[C@@H]1C(=O)C[C@H]2C[C@@H]1OO[C@@]2(C)/C=C\c1ccc(Cl)cc1Cl` [drawing 10 (1S, 4R, 5R, 8S)], which “Activity ED50 (dosage which, after four-fold administration, reduces to 50% the average erythrocyte infection rate versus control)” value [1] is on record?
**A.** 4.6 mg/kg
